The assay has as its system L1210 leukemia ip in BDF1 mice, survival T/C. In words: NCI In Vivo Anticancer Drug Screen. Data for tumor model L1210 Leukemia (intraperitoneal) in B6D2F1 (BDF1) mice. To be noted: endpoint: mean survival time, higher = longer survival. The gist of the method: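 Ratio derived from survival: compound-dosed mice over vehicle-dosed mice, all bearing a transplantable tumor.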

Where [1] appears, read: dose: 100.0 mg/kg/injection, schedule: Q04DX003 (ip), vehicle: saline.
Where [2] appears, read: dose: 200.0 mg/kg/injection, schedule: Q04DX003 (ip), vehicle: saline.
[3] abbreviates: dose: 400.0 mg/kg/injection, schedule: Q04DX003 (ip), vehicle: saline.
Where [4] appears, read: dose: 100.0 mg/kg/injection, schedule: Q01DX001 (ip), vehicle: carboxymethylcellulose (CMC).
Setting [5] is: dose: 200.0 mg/kg/injection, schedule: Q01DX001 (ip), vehicle: carboxymethylcellulose (CMC).
Setting [6] is: dose: 400.0 mg/kg/injection, schedule: Q01DX001 (ip), vehicle: carboxymethylcellulose (CMC).
Where [7] appears, read: dose: 50.0 mg/kg/injection, schedule: Q01DX009 (ip), vehicle: saline with Tween-80.
[8] abbreviates: dose: 100.0 mg/kg/injection, schedule: Q01DX009 (ip), vehicle: carboxymethylcellulose (CMC).
The mark [9] stands for this setting: dose: 100.0 mg/kg/injection, schedule: Q04DX002 (ip), vehicle: carboxymethylcellulose (CMC).
Setting [10] is: dose: 200.0 mg/kg/injection, schedule: Q01DX009 (ip), vehicle: carboxymethylcellulose (CMC).
The mark [11] stands for this setting: dose: 200.0 mg/kg/injection, schedule: Q04DX002 (ip), vehicle: carboxymethylcellulose (CMC).
Where [12] appears, read: dose: 400.0 mg/kg/injection, schedule: Q04DX002 (ip), vehicle: carboxymethylcellulose (CMC).

Values joined by “and” are separate entries in the source; they are usually repeats but may differ in a detail not shown here. Equal entries are not always repeated. Inconclusive results and toxic doses are left out.

As for `NNC(=O)c1cnccn1`, the T/C by setting is: (dose: 16.0 mg/kg/injection, schedule: Q01DX015 (ip), vehicle: water) 102 % of control; (dose: 32.0 mg/kg/injection, schedule: Q01DX015 (ip), vehicle: water) 115 % of control; (dose: 64.0 mg/kg/injection, schedule: Q01DX015 (ip), vehicle: water) 109 % of control; (dose: 80.0 mg/kg/injection, schedule: Q01DX015 (ip), vehicle: water) 105 % of control; (dose: 100.0 mg/kg/injection, schedule: Q01DX001 (ip), vehicle: water) 96 % of control; (dose: 120.0 mg/kg/injection, schedule: Q01DX015 (ip), vehicle: water) 113 % of control.
Take `N#C/C=C/C1=CCCCC1`: the T/C under setting [1] was 101 % of control, the T/C under setting [2] is 97 % of control and the T/C under setting [3] is 93 % of control.
Consider `CCOC(=O)CNC(=O)CO`, for which the T/C was 101 % of control (dose: 100.0 mg/kg/injection, schedule: Q01DX001 (ip), vehicle: other); 95 % of control (dose: 200.0 mg/kg/injection, schedule: Q01DX001 (ip), vehicle: other); 101 % of control (dose: 400.0 mg/kg/injection, schedule: Q01DX001 (ip), vehicle: other).
With `NC(c1ccccc1)(c1ccccc1)c1ccccc1`, the T/C was 101 % of control (dose: 100.0 mg/kg/injection, schedule: Q01DX001 (ip), vehicle: saline); 101 % of control (dose: 200.0 mg/kg/injection, schedule: Q01DX001 (ip), vehicle: saline); 101 % of control (dose: 400.0 mg/kg/injection, schedule: Q01DX001 (ip), vehicle: saline).
Regarding `O=C(N=Nc1c(O)[nH]c2ccccc12)c1ccccc1[N+](=O)[O-]`, the T/C runs as follows: under setting [4], 87 % of control; under setting [5], 90 % of control; under setting [6], 96 % of control.
For `O=C(O)C1CC(c2ccccc2)=NN1c1ccccc1` (stereo unspecified), the T/C reads like this: (dose: 100.0 mg/kg/injection, schedule: Q01DX001 (ip), vehicle: Klucel (hydroxypropylcellulose) (HPC)) 104 % of control; (dose: 200.0 mg/kg/injection, schedule: Q01DX001 (ip), vehicle: Klucel (hydroxypropylcellulose) (HPC)) 90 % of control; (dose: 400.0 mg/kg/injection, schedule: Q01DX001 (ip), vehicle: Klucel (hydroxypropylcellulose) (HPC)) 93 % of control.
Take `CCN(CC)C(=O)c1cc([N+](=O)[O-])ccc1OCc1ccccc1`: the T/C is, setting by setting: (dose: 25.0 mg/kg/injection, schedule: Q04DX002 (ip), vehicle: saline with Tween-80) 98 % of control; (dose: 50.0 mg/kg/injection, schedule: Q04DX002 (ip), vehicle: saline with Tween-80) 98 % of control; (dose: 100.0 mg/kg/injection, schedule: Q04DX002 (ip), vehicle: saline with Tween-80) 110 % of control and 91 % of control; (dose: 200.0 mg/kg/injection, schedule: Q04DX002 (ip), vehicle: saline with Tween-80) 89 % of control; (dose: 400.0 mg/kg/injection, schedule: Q04DX002 (ip), vehicle: saline with Tween-80) 95 % of control.
With `COc1cc(C=Nc2ccc(-c3nc(C)sc3C)cc2)ccc1N(CCCl)CCCl`, the T/C is, setting by setting: (dose: 11.0 mg/kg/injection, schedule: Q01DX009 (ip), vehicle: carboxymethylcellulose (CMC)) 200 % of control; (dose: 11.1 mg/kg/injection, schedule: Q01DX001 (ip), vehicle: carboxymethylcellulose (CMC)) 118 % of control; (dose: 16.6 mg/kg/injection, schedule: Q01DX009 (ip), vehicle: carboxymethylcellulose (CMC)) 90 % of control; (dose: 25.0 mg/kg/injection, schedule: Q01DX001 (ip), vehicle: carboxymethylcellulose (CMC)) 202 % of control.
For the compound `CP1CCC(O)(C(C)(C)C)CC1` (stereo unspecified), the T/C was 101 % of control (dose: 75.0 mg/kg/injection, schedule: Q01DX001 (ip), vehicle: other) and 91 % of control (dose: 150.0 mg/kg/injection, schedule: Q01DX001 (ip), vehicle: other).
As for `COc1cc2c(cc1OC)-c1cc3cc(OC)c(OC)cc3c(CCC(=O)O)[n+]1CC2` (tested in a mixture with another compound), the T/C is 117 % of control (dose: 100.0 mg/kg/injection, schedule: Q04DX002 (ip), vehicle: saline); 103 % of control (dose: 200.0 mg/kg/injection, schedule: Q04DX002 (ip), vehicle: saline); 109 % of control (dose: 400.0 mg/kg/injection, schedule: Q04DX002 (ip), vehicle: saline).
Turning to `Cc1ccc(/C=C(\C#N)C(=O)O)cc1`, the T/C runs as follows: (dose: 12.5 mg/kg/injection, schedule: Q01DX009 (ip), vehicle: saline with Tween-80) 94 % of control; (dose: 25.0 mg/kg/injection, schedule: Q01DX009 (ip), vehicle: saline with Tween-80) 94 % of control; under setting [7], 100 % of control and 88 % of control.
Regarding `Cc1ccc2[nH]c(=S)n(-c3ccc(C)c(Cl)c3)c(=O)c2c1`, the T/C is, setting by setting: under setting [8], 95 % of control; under setting [9], 99 % of control and 89 % of control; under setting [10], 93 % of control and 89 % of control; under setting [11], 96 % of control and 99 % of control; (dose: 400.0 mg/kg/injection, schedule: Q01DX009 (ip), vehicle: carboxymethylcellulose (CMC)) 92 % of control and 89 % of control; under setting [12], 92 % of control.
For the compound `Nc1nc(N)c2nc(CNc3cccc4ccccc34)cnc2n1`, the T/C was 102 % of control (dose: 10.0 mg/kg/injection, schedule: Q01DX009 (ip), vehicle: Klucel (hydroxypropylcellulose) (HPC)); 102 % of control (dose: 20.0 mg/kg/injection, schedule: Q01DX009 (ip), vehicle: Klucel (hydroxypropylcellulose) (HPC)); 100 % of control (dose: 40.0 mg/kg/injection, schedule: Q01DX009 (ip), vehicle: Klucel (hydroxypropylcellulose) (HPC)).
Regarding `COc1cc(C=O)ccc1OC(=O)Nc1ccc(Cl)cc1C(F)(F)F`, the T/C is, setting by setting: under setting [7], 89 % of control; (dose: 100.0 mg/kg/injection, schedule: Q01DX009 (ip), vehicle: saline with Tween-80) 100 % of control; (dose: 200.0 mg/kg/injection, schedule: Q01DX009 (ip), vehicle: saline with Tween-80) 96 % of control.
As for `CC(C)CN=C(N)CSS(=O)(=O)O`, the T/C by setting is: (dose: 12.5 mg/kg/injection, schedule: Q04DX002 (ip), vehicle: Klucel (hydroxypropylcellulose) (HPC)) 102 % of control; (dose: 25.0 mg/kg/injection, schedule: Q04DX002 (ip), vehicle: Klucel (hydroxypropylcellulose) (HPC)) 105 % of control; (dose: 50.0 mg/kg/injection, schedule: Q04DX002 (ip), vehicle: Klucel (hydroxypropylcellulose) (HPC)) 94 % of control; (dose: 200.0 mg/kg/injection, schedule: Q04DX002 (ip), vehicle: Klucel (hydroxypropylcellulose) (HPC)) 94 % of control.
Regarding `CCOC(=O)OCc1ccco1`, the T/C was 94 % of control under setting [4]; 101 % of control and 103 % of control under setting [8]; 98 % of control and 100 % of control under setting [9]; 102 % of control (dose: 100.0 mg/kg/injection, schedule: Q04DX003 (ip), vehicle: carboxymethylcellulose (CMC)); 89 % of control under setting [5]; 97 % of control and 109 % of control under setting [10]. The T/C under setting [11] is 98 % of control and 101 % of control; the T/C (dose: 200.0 mg/kg/injection, schedule: Q04DX003 (ip), vehicle: carboxymethylcellulose (CMC)) is 96 % of control; the T/C under setting [6] is 110 % of control; the T/C under setting [12] was 103 % of control and 106 % of control; the T/C (dose: 400.0 mg/kg/injection, schedule: Q04DX003 (ip), vehicle: carboxymethylcellulose (CMC)) was 112 % of control.
For `Cc1cccnc1NC(=O)NCCCl`, the T/C runs as follows: under setting [4], 101 % of control; (dose: 100.0 mg/kg/injection, schedule: Q01DX009 (ip), vehicle: Klucel (hydroxypropylcellulose) (HPC)) 92 % of control; under setting [1], 98 % of control; under setting [5], 103 % of control; (dose: 200.0 mg/kg/injection, schedule: Q01DX009 (ip), vehicle: Klucel (hydroxypropylcellulose) (HPC)) 93 % of control; under setting [2], 97 % of control. Moreover, the T/C is 103 % of control under setting [6] and 89 % of control under setting [3].
For `CCOC(=O)Cc1cc(O)ccc1O`, the T/C is 109 % of control (dose: 100.0 mg/kg/injection, schedule: Q01DX001 (ip), vehicle: saline with Tween-80); 89 % of control (dose: 200.0 mg/kg/injection, schedule: Q01DX001 (ip), vehicle: saline with Tween-80); 91 % of control (dose: 400.0 mg/kg/injection, schedule: Q01DX001 (ip), vehicle: saline with Tween-80).
